Measurements as given in PubChem BioAssay (NCI).
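Compound exposure: 48 hours, 5 concentrations, 96-well plates. At the GI50, growth is halved. TGI: concentration producing complete growth inhibition.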

Columns and labels:
Assay in all cases: NCI tumour cell line growth inhibition, 48 h
NCI-H23 lung = test system: NCI-H23 lung
SNB-19 CNS = test system: SNB-19 CNS
M14 melanoma = test system: M14 melanoma
SR leukemia = test system: SR leukemia
OVCAR-8 ovarian = test system: OVCAR-8 ovarian
CAKI-1 renal = test system: CAKI-1 renal
IGROV1 ovarian = test system: IGROV1 ovarian
786-0 renal = test system: 786-0 renal
DU-145 prostate = test system: DU-145 prostate
SF-295 CNS = test system: SF-295 CNS
MDA-MB-231 breast = test system: MDA-MB-231 breast
KM12 colon = test system: KM12 colon
HCT-116 colon = test system: HCT-116 colon
UACC-62 melanoma = test system: UACC-62 melanoma
HS 578T breast = test system: HS 578T breast
K-562 leukemia = test system: K-562 leukemia
LOX IMVI melanoma = test system: LOX IMVI melanoma
SN12C renal = test system: SN12C renal
CCRF-CEM leukemia = test system: CCRF-CEM leukemia
HCC-2998 colon = test system: HCC-2998 colon
SNB-75 CNS = test system: SNB-75 CNS
HCT-15 colon = test system: HCT-15 colon
HT29 colon = test system: HT29 colon
HL-60(TB) leukemia = test system: HL-60(TB) leukemia
OVCAR-4 ovarian = test system: OVCAR-4 ovarian
NCI/ADR-RES ovarian = test system: NCI/ADR-RES ovarian
TK-10 renal = test system: TK-10 renal
BT-549 breast = test system: BT-549 breast
SK-MEL-28 melanoma = test system: SK-MEL-28 melanoma
ACHN renal = test system: ACHN renal
SF-539 CNS = test system: SF-539 CNS
SW-620 colon = test system: SW-620 colon
HOP-92 NSCLC = test system: HOP-92 NSCLC
A498 renal = test system: A498 renal
SK-MEL-5 melanoma = test system: SK-MEL-5 melanoma
U251 CNS = test system: U251 CNS
NCI-H460 lung = test system: NCI-H460 lung
EKVX NSCLC = test system: EKVX NSCLC
MOLT-4 leukemia = test system: MOLT-4 leukemia
OVCAR-3 ovarian = test system: OVCAR-3 ovarian
A549 NSCLC = test system: A549 NSCLC
NCI-H522 lung = test system: NCI-H522 lung
MDA-MB-435 = test system: MDA-MB-435
RPMI-8226 leukemia = test system: RPMI-8226 leukemia
NCI-H226 lung = test system: NCI-H226 lung
T-47D breast = test system: T-47D breast
HOP-62 NSCLC = test system: HOP-62 NSCLC
COLO 205 colon = test system: COLO 205 colon
UO-31 renal = test system: UO-31 renal
PC-3 prostate = test system: PC-3 prostate
OVCAR-5 ovarian = test system: OVCAR-5 ovarian
RXF 393 renal = test system: RXF 393 renal
MCF7 breast = test system: MCF7 breast
UACC-257 melanoma = test system: UACC-257 melanoma
SF-268 CNS = test system: SF-268 CNS
MALME-3M melanoma = test system: MALME-3M melanoma

`Cc1cc(S(=O)(=O)Nc2nc3ccccc3c(=O)n2Cc2ccco2)c(S)cc1Cl` showed a GI50 (NCI-H23 lung) of 46 µM, a TGI (NCI-H23 lung) greater than 100 µM and a TGI (SNB-19 CNS) greater than 100 µM. The GI50 (M14 melanoma) was 69.9 µM, the TGI (M14 melanoma) was greater than 100 µM and the GI50 (SR leukemia) was 19.5 µM. The TGI (SR leukemia) was 40.7 µM, the GI50 (OVCAR-8 ovarian) was 57.7 µM and the TGI (OVCAR-8 ovarian) was greater than 100 µM. It also gave a GI50 (CAKI-1 renal) of 44.1 µM, a TGI (CAKI-1 renal) greater than 100 µM and a GI50 (IGROV1 ovarian) of 36.9 µM. For the same compound, the TGI (IGROV1 ovarian) was greater than 100 µM, the GI50 (786-0 renal) was 36.1 µM and the TGI (786-0 renal) was greater than 100 µM. The GI50 (DU-145 prostate) was 30.7 µM, the TGI (DU-145 prostate) was greater than 100 µM and the GI50 (SF-295 CNS) was 31.8 µM. For the same compound, the TGI (SF-295 CNS) was greater than 100 µM, the GI50 (MDA-MB-231 breast) was 38.5 µM and the TGI (MDA-MB-231 breast) was greater than 100 µM. The GI50 (KM12 colon) was 30.1 µM, the TGI (KM12 colon) was greater than 100 µM and the GI50 (HCT-116 colon) was 42.3 µM. It also gave a TGI (HCT-116 colon) greater than 100 µM, a GI50 (UACC-62 melanoma) of 36.4 µM and a TGI (UACC-62 melanoma) greater than 100 µM. For the same compound, the GI50 (HS 578T breast) was 30.5 µM, the TGI (HS 578T breast) was greater than 100 µM and the GI50 (K-562 leukemia) was 49.7 µM. For the same compound, the TGI (K-562 leukemia) was greater than 100 µM, the GI50 (LOX IMVI melanoma) was 26.1 µM and the TGI (LOX IMVI melanoma) was 59.3 µM. It also gave a GI50 (SN12C renal) of 29.8 µM, a TGI (SN12C renal) of 88.8 µM and a GI50 (CCRF-CEM leukemia) of 29.2 µM. It also gave a TGI (CCRF-CEM leukemia) greater than 100 µM, a GI50 (HCC-2998 colon) of 38.6 µM and a TGI (HCC-2998 colon) greater than 100 µM. The GI50 (SNB-75 CNS) was 97 µM, the TGI (SNB-75 CNS) was greater than 100 µM and the GI50 (HCT-15 colon) was 55 µM. The TGI (HCT-15 colon) was greater than 100 µM, the GI50 (HT29 colon) was 46.2 µM and the TGI (HT29 colon) was greater than 100 µM. For the same compound, the GI50 (HL-60(TB) leukemia) was 74.3 µM, the TGI (HL-60(TB) leukemia) was greater than 100 µM and the GI50 (OVCAR-4 ovarian) was 87.7 µM. It also gave a TGI (OVCAR-4 ovarian) greater than 100 µM, a GI50 (NCI/ADR-RES ovarian) of 54.8 µM and a TGI (NCI/ADR-RES ovarian) greater than 100 µM. For the same compound, the GI50 (TK-10 renal) was 35 µM, the TGI (TK-10 renal) was greater than 100 µM and the GI50 (BT-549 breast) was 15.7 µM. It also gave a TGI (BT-549 breast) of 51.9 µM, a GI50 (SK-MEL-28 melanoma) of 34.8 µM and a TGI (SK-MEL-28 melanoma) greater than 100 µM. The GI50 (ACHN renal) was 49.8 µM, the TGI (ACHN renal) was greater than 100 µM and the GI50 (SF-539 CNS) was 31.5 µM. The TGI (SF-539 CNS) was 84.5 µM, the GI50 (SW-620 colon) was 30.7 µM and the TGI (SW-620 colon) was greater than 100 µM. For the same compound, the GI50 (HOP-92 NSCLC) was greater than 100 µM, the TGI (HOP-92 NSCLC) was greater than 100 µM and the GI50 (A498 renal) was 33.1 µM. The TGI (A498 renal) was greater than 100 µM, the GI50 (SK-MEL-5 melanoma) was 22.8 µM and the TGI (SK-MEL-5 melanoma) was greater than 100 µM. It also gave a GI50 (U251 CNS) of 45.8 µM, a TGI (U251 CNS) greater than 100 µM and a GI50 (NCI-H460 lung) of 33.3 µM. It also gave a TGI (NCI-H460 lung) greater than 100 µM, a GI50 (EKVX NSCLC) of 22.8 µM and a TGI (EKVX NSCLC) of 70.6 µM. It also gave a GI50 (MOLT-4 leukemia) of 18.6 µM, a TGI (MOLT-4 leukemia) greater than 100 µM and a GI50 (OVCAR-3 ovarian) of 30.5 µM. The TGI (OVCAR-3 ovarian) was greater than 100 µM, the GI50 (A549 NSCLC) was 48 µM and the TGI (A549 NSCLC) was greater than 100 µM. For the same compound, the GI50 (NCI-H522 lung) was 37.4 µM, the TGI (NCI-H522 lung) was greater than 100 µM and the GI50 (MDA-MB-435) was 41.2 µM. The TGI (MDA-MB-435) was greater than 100 µM, the GI50 (RPMI-8226 leukemia) was 27 µM and the TGI (RPMI-8226 leukemia) was greater than 100 µM. For the same compound, the GI50 (NCI-H226 lung) was 83.6 µM, the TGI (NCI-H226 lung) was greater than 100 µM and the GI50 (T-47D breast) was 15 µM. It also gave a TGI (T-47D breast) of 81.4 µM, a GI50 (HOP-62 NSCLC) of 32.8 µM and a TGI (HOP-62 NSCLC) of 69.6 µM. The GI50 (COLO 205 colon) was greater than 100 µM, the TGI (COLO 205 colon) was greater than 100 µM and the GI50 (UO-31 renal) was 49.5 µM. For the same compound, the TGI (UO-31 renal) was greater than 100 µM, the GI50 (PC-3 prostate) was 36.9 µM and the TGI (PC-3 prostate) was greater than 100 µM. It also gave a GI50 (OVCAR-5 ovarian) of 60.4 µM, a TGI (OVCAR-5 ovarian) greater than 100 µM and a GI50 (RXF 393 renal) of 61.7 µM. The TGI (RXF 393 renal) was greater than 100 µM, the GI50 (MCF7 breast) was 41.5 µM and the TGI (MCF7 breast) was greater than 100 µM. The GI50 (UACC-257 melanoma) was greater than 100 µM, the TGI (UACC-257 melanoma) was greater than 100 µM and the GI50 (SF-268 CNS) was 40.6 µM. It also gave a TGI (SF-268 CNS) greater than 100 µM, a GI50 (MALME-3M melanoma) of 54.8 µM and a TGI (MALME-3M melanoma) greater than 100 µM.
